The record followed here is article PMC12428754, “Testing Strategies for Metabolite-Mediated Neurotoxicity” (International Journal of Molecular Sciences, 2025).

In one test the test system is LUHMES cells. Kind of test: MitoMet (UKN4b) neurite outgrowth assay. The conditions noted are these: for IC25: read-out: BMC25 neurite outgrowth; for fold change between BMC25 values of parent and metabolite (potency ratio, parent divided by metabolite): listed under the metabolite, >1 = metabolite more potent. It is filed as cell-based, human. How it is done: Figure 1 (A) A strategy scheme to assess metabolite-mediated hazard in NAMs used for neurotoxicity or developmental neurotoxicity. Parent and metabolite compounds are tested separately in the respective assay. This strategy is applicable when there is prior knowledge of metabolite formation. A decision rule based on the relative toxicities (X) of the parent and metabolite may be applied to decide whether next-generation risk assessment (NGRA) should be applied to the metabolite. The value of X may be defined according to the problem formulation and the NAM used. (B) An assay scheme of the neurite outgrowth assay used here for exemplification: Proliferating LUHMES cells were replated one day before differentiation was initiated (day −1). After two days (day 2) in differentiation medium, the cells were replated into assay format (96-well). At this point, neurite growth was re-initiated. The cells were treated with toxicants 1 h after replating. Neurite outgrowth and viability were determined 24 h later, using automated high content imaging. (C) Comparison of neurite outgrowth of cultures treated with bromethalin and desmethyl-bromethalin one exemplary parent/metabolite pair (chemical structures shown). […] The curves are based on data from three independent experiments and were fitted using a four-parameter Hill function. Data points shown are arithmetic means of data from independent experiments ±SEM. In each independent experiment, the technical replicates were measured and averaged. A benchmark response (BMR) of 25% was used as specified in the detailed assay description, and the respective benchmark concentration (BMC25) was determined. […] (D) Microscopic images of calcein-stained LUHMES cells. Similar images are used for neurite quantification. Treatment with 40 nM of the parent (left) or metabolite (right). The scale bar in orange corresponds to 50 µm. […] It stands under panel C and to the right of panel D, and was assigned to C.
The MitoMet neurite outgrowth assay was performed as previously described. In brief, all cell culture dishes and flasks were pre-coated with 50 μg/mL poly-l-ornithine (PLO) and 1 μg/mL fibronectin. Proliferating LUHMES cells were maintained in AdvDMEM/F12 containing L-glutamine (2 mM), N2 supplement (1x), and FGF (40 ng/mL). For pre-differentiation, the cells were replated at a density of 46,000 cells/cm^2 one day prior to the induction of differentiation (defined as the day of differentiation, Day −1). Differentiation was initiated by exchanging the culture medium for AdvDMEM/F12 supplemented with L-glutamine (2 mM), N2 supplement (1x), dibutyryl-cAMP (1 mM), tetracycline (1 µg/mL), and GDNF (2 ng/mL). After two days of differentiation (Day 2), the cells were replated (100,000 cells/cm^2) into 96-well plates. The final assay medium consisted of glucose-free AdvDMEM/F12 supplemented with galactose (18 mM), L-glutamine (2 mM), and tetracycline (1 µg/mL). One hour after replating, the cells were treated with a 10× concentrated stock solution of the test compound. Neurite outgrowth and viability were determined 24 h later, using automated high content imaging.
The image acquisition and analysis were conducted according to established protocols. The cells were stained with Hoechst H-33342 (1 µg/mL) to visualise nuclei and calcein-AM (1 µM) to label viable cell structures. Fluorescent images were acquired using an automated imaging system.

For test [1], the system named is hiPSC-derived neural crest-like cells. Kind of test: cMINC (UKN2) neural crest cell migration assay. The class given is cell-based, human. The conditions noted are these: listed under the metabolite. How it is done: Figure 6 The transfer of the metabolisation module to the neural crest cell migration assay (cMINC). (A) A schematic of the cMINC (circular migration of neural crest cells) assay. The cells were seeded around a central stopper to create a cell-free circular area. Migration was initiated 24 h after seeding by removing the stopper. This is defined as the day of migration (DoM) 0. On DoM 1, the cells were exposed to toxicants. After 24 h of exposure, both cell migration and viability were quantified, using automated high-content imaging. (B) Compatibility of the metabolisation module (preincubation with 500 µg/mL S9 at 37 °C for 2 h) with the cMINC assay: The setup was as described in Figure 4 and as exemplified in Figure 5A. No compound was added (solvent control). The S9 mixture (at 500 µg/mL ± NADPH) was added to the normal cell culture medium of the cMINC assay (so that the addition was 10% of the total volume). Data are from three independent experiments. (C,D) The concentration-dependent effects on migration were evaluated for metabolite mixtures generated from bromethalin (C) or chlorfenapyr (D). […] The arrows indicate the direction of sensitivity shift between NADPH-dependent and -independent metabolite mixtures, with accompanying fold change values. The concentrations are given as nominal concentrations of the parent compound. Abbreviations: n.s., not significant. TEXT PRINTED IN THE PICTURE: (C) Bromethalin: x30 | (D) Chlorfenapyr: x15
The MINC assay was performed as previously described. Briefly, 96-well plates were prepared by inserting a central 2 mm diameter stopper (Platypus Technologies, Madison, WI, USA) into pre-coated wells with a composite poly-L-ornithine (PLO; 10 µg/mL), fibronectin (1 µg/mL), and laminin (1 µg/mL) matrix. […] After a further 24 h (DoM 2), cell migration and viability were assessed. […] High content imaging was performed, and data were analysed using the RingAssay V1 software (http://invitrotox.uni-konstanz.de/, accessed on 3 February 2025). […]

The mark [2] stands for this setting: Homo sapiens, benchmark response 25%, neurite area, 24 h exposure, three independent experiments.

SMILES strings stand for the structures. Where two headings read alike, the source gives them in different places. Bounds are passed on as bounds.

For `O=C(c1ccccc1)c1ccc(O)cc1` [4-Hydroxybenzophenone], the IC25 with LUHMES cells (setting [2]) was determined as 78000 nM. The “fold change between BMC25 values of parent and metabolite (potency ratio, parent divided by metabolite)” value in the test with LUHMES cells is on record as above 6 fold. Further, in test [1], the “increase in potency of metabolite compared to parent (BMC25 ratio)” value was “over three”.
`CN(c1c(Br)cc(Br)cc1Br)c1c([N+](=O)[O-])cc([N+](=O)[O-])cc1C(F)(F)F` [Bromethalin]: the IC25 in the test on LUHMES cells (Homo sapiens, 24 h) was 790 nM; in the test on LUHMES cells (benchmark response 25%, neurite area, 24 h exposure, three independent experiments) it was 790 nM.
For `CCOCn1c(-c2ccc(Cl)cc2)c(C#N)c(Br)c1C(F)(F)F` [Chlorfenapyr], the IC25 in the test with LUHMES cells (setting [2]) is above 10000 nM.
Regarding `N#Cc1c(-c2ccc(Cl)cc2)[nH]c(C(F)(F)F)c1Br` [Tralopyril], the IC25 in the test with LUHMES cells (setting [2]) was found to be 350 nM. Moreover, the “fold change between BMC25 values of parent and metabolite (potency ratio, parent divided by metabolite)” value with LUHMES cells is on record as above 29 fold. Further, the “increase in potency of metabolite compared to parent (BMC25 ratio)” value in test [1] was found to be 28 fold.
